From ChEMBL document CHEMBL3301361, “Experimental in vitro DMPK and physicochemical data on a set of publicly disclosed compounds”
Values after ≈ are worked out from the molar mass of the structure shown.

How the values were obtained:
in vitro [1] = settings: SD, HW or BN, rat, plasma
physchem [2] = settings: octan-1-ol/water, pH 7.4, LogD7.4
in vitro [3] = settings: human
in vitro [4] = settings: human, hepatocytes
in vitro [5] = settings: human, plasma, PPB
in vitro [6] = settings: Beagle, dog, plasma
in vitro [7] = settings: hepatocytes
physchem [8] = settings: pH 7.4 buffer

| Compound | fraction unbound at 5 h (in vitro [1]) | logD (physchem [2]) | microsomal CLint (in vitro [3]; liver microsomes) [µL/min/mg] | hepatocyte CLint (in vitro [4]) [µL/min/1e6 cells] | fraction unbound at 5 h (in vitro [5]) | fraction unbound at 5 h (in vitro [6]) | microsomal CLint (in vitro [3]; microsomes) [µL/min/mg] | hepatocyte CLint (in vitro [7]) [µL/min/1e6 cells] | solubility thermodynamic (physchem [8]) [µM] |
| --- | --- | --- | --- | --- | --- | --- | --- | --- | --- |
| CCCc1nc2c(C)cc(-c3nc4ccccc4n3C)cc2n1Cc1ccc(-c2ccccc2C(=O)O)cc1 | 0.0038 | 2.21 | < 3 | 3.98 | 0.0077 | 0.0175 | – | – | – |
| CC(C)(N)C(=O)N[C@H](COCc1ccc(F)cc1F)C(=O)N1CCC2=NN(CC(F)(F)F)C(=O)[C@]2(Cc2ccccn2)C1 | 0.511 | – | – | 15.5 | – | 0.454 | – | – | – |
| O=C(O)COc1ccc(Cl)cc1CN1CCN(S(=O)(=O)Cc2ccccc2)CC1 | 0.114 | 0.33 | – | < 3 | 0.0067 | 0.0343 | – | – | – |
| N#Cc1cccc(-c2cc(Cl)ccc2OCC(=O)O)c1 | 0.0343 | – | – | – | 0.0075 | 0.0234 | < 3 | – | – |
| Cc1ccc(S(=O)(=O)Nc2c(C(=O)N[C@@H](C)C(C)(C)C)c(C)nn2C2CCOCC2)cc1 | 0.166 | – | 7 | – | 0.208 | 0.529 | – | < 3 | – |
| O=c1cc(N2CCOCC2)nc2n(Cc3cccc4ccccc34)ccn12 | 0.0477 | 3.3 | – | – | 0.0307 | 0.0676 | – | – | – |
| COc1cc2c(cc1-c1c(C)noc1C)ncc1[nH]c(=O)n([C@H](C)c3ccccn3)c12 | 0.0374 | 3.15 | – | – | 0.0234 | 0.105 | 7.59 | – | – |
| CC(C)Oc1cc(-n2cnc3ccc(N[C@@H](CO)c4ccc(F)cn4)nc32)n[nH]1 | 0.186 | 2.79 | – | – | 0.0818 | 0.304 | – | – | – |
| CC(C)Oc1cc(Nc2nc3c(cc2F)ncn3[C@@H](CO)c2ccc(F)cn2)n[nH]1 | 0.119 | 2.97 | – | – | 0.051 | 0.249 | – | – | – |
| Cc1c(OC2CCN(CC3CCN([C@@](C)(Cc4ccc(F)cc4)C(=O)O)CC3)CC2)ccc(Cl)c1Cl | 0.0752 | – | < 3 | – | – | 0.0568 | – | < 3 | – |
| O=C(O)[C@H](Cc1ccc(F)cc1)N1CCC(CN2CCC(Oc3ccc(Cl)c(Cl)c3)CC2)CC1 | 0.22 | 2.98 | – | – | 0.114 | 0.224 | – | – | 72.4 (≈ 36.9 µg/mL) |
| CO[C@H]1CN(CCn2c(=O)ccc3ccc(C#N)cc32)CC[C@H]1NCc1cc2c(cn1)OCCO2 | 0.738 | 0.63 | – | – | 0.483 | 0.569 | – | – | – |
| Cc1cn([C@H]2CCCN([C@H](C)c3ccc(C(=O)O)c(Oc4cccc(Cl)c4)c3)C2)c(=O)[nH]c1=O | 0.0293 | -0.3 | – | – | 0.0156 | 0.101 | – | 3.39 | – |
| Cc1cn([C@H]2CCCN([C@@H](C)c3ccc(C(=O)O)c(Oc4cccc(Cl)c4)c3)C2)c(=O)[nH]c1=O | 0.0268 | -0.26 | – | – | 0.0229 | 0.0532 | – | – | – |
| Cc1cn([C@H]2CCCN([C@H](CC(C)C)c3ccc(C(=O)O)c(Oc4cccc(Cl)c4)c3)C2)c(=O)[nH]c1=O | 0.0175 | 0.91 | – | – | 0.0274 | 0.0366 | – | 9.12 | – |
| Cc1cn([C@H]2CCCN([C@H](CC(C)(C)C)c3ccc(C(=O)O)c(Oc4cccc(Br)c4)c3)C2)c(=O)[nH]c1=O | 0.0149 | 1.09 | – | – | 0.0287 | 0.0268 | – | 49 | – |
| CC(C)(C)NC(=O)NCCN1CC(NC(=O)c2cc(Cl)cc(Cl)c2)C1 | 0.101 | – | – | 3.31 | 0.0928 | 0.0784 | – | – | – |
| CC(C)(C)NC(=O)NCCN1CCN(CC(=O)NC23CC4CC(CC(C4)C2)C3)CC1 | – | – | – | 33.9 | – | 0.24 | – | – | – |
| CC[C@H](CO)Nc1nc(SCc2ccccc2)nc2[nH]c(=O)sc12 | – | – | – | 10 | 0.0016 | 0.0053 | – | – | – |
| C[C@H](CO)Nc1nc(SCc2ccco2)nc2[nH]c(=O)sc12 | – | 2.21 | – | – | 0.016 | 0.0274 | 8.28 | 61 | – |
| CCN(CC)CCN1C(=O)C(O)(c2ccccc2Cl)c2c1cc(C(N)=O)cc2C(F)(F)F (stereo not drawn) | – | – | – | 15.1 | – | 0.212 | – | – | – |
